Measured values: PubChem BioAssay AID256 (DTP/NCI, 2004)
“And” between values parts separate entries of the source, which are not always exact repeats. Identical values can stand only once. Inconclusive results and toxic doses are left out.

System: CD2F1 mice, L1210 leukemia ip, survival T/C
Experiment: NCI In Vivo Anticancer Drug Screen. Data for tumor model L1210 Leukemia (intraperitoneal) in CD2F1 (CDF1) mice
Conditions: endpoint: mean survival time, higher = longer survival
Outline: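 Read-out first: treated-group measurement over vehicle-control measurement, expressed as a ratio. Animals bore a transplanted tumor line and were dosed with compound or vehicle.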

[1] = dose: 200.0 mg/kg/injection, schedule: Q04DX002 (ip), vehicle: saline with Tween-80

With COc1cc([C@@H]2c3cc4c(cc3[C@@H](OC3OC5CO[C@@H](c6cccs6)OC5C(O)C3O)[C@H]3COC(=O)[C@H]23)OCO4)cc(OC)c1O (some centres not stated) as the compound, how does the T/C (dose: 0.25 mg/kg/injection, schedule: Q01DX009 (ip), vehicle: saline) read?
Its T/C is 115 % of control.

What about the T/C (dose: 0.25 mg/kg/injection, schedule: Q03HX016 (ip), vehicle: saline) of the same compound?
Its T/C is 152 % of control.

And the T/C (dose: 0.25 mg/kg/injection, schedule: Q03HX024 (ip), vehicle: saline)?
Its T/C is 169 % of control and 173 % of control.

And the T/C (dose: 0.5 mg/kg/injection, schedule: Q01DX009 (sc), vehicle: saline)?
Its T/C is 110 % of control.

And the T/C (dose: 0.5 mg/kg/injection, schedule: Q03HX008 (ip), vehicle: saline)?
Its T/C is 164 % of control.

And the T/C (dose: 0.5 mg/kg/injection, schedule: Q03HX016 (ip), vehicle: saline)?
The T/C was 246 % of control.

And the T/C (dose: 0.5 mg/kg/injection, schedule: Q03HX024 (ip), vehicle: saline)?
The T/C was 256 % of control and 323 % of control.

What about the T/C (dose: 1.0 mg/kg/injection, schedule: Q01DX005 (ip), vehicle: saline) of the same compound?
The T/C was 153 % of control.

What about the T/C (dose: 1.0 mg/kg/injection, schedule: Q01DX009 (ip), vehicle: saline) of the same compound?
The T/C was 123 % of control and 231 % of control and 106 % of control.

What about the T/C (dose: 1.0 mg/kg/injection, schedule: Q03HX008 (ip), vehicle: saline) of the same compound?
Its T/C is 192 % of control.

And the T/C (dose: 1.0 mg/kg/injection, schedule: Q03HX016 (ip), vehicle: saline)?
Its T/C is 544 % of control.

What about the T/C (dose: 1.0 mg/kg/injection, schedule: Q03HX024 (ip), vehicle: saline) of the same compound?
The T/C was 441 % of control and 514 % of control.

And the T/C (dose: 2.0 mg/kg/injection, schedule: Q01DX001 (sc), vehicle: saline)?
The T/C was 113 % of control.

And the T/C (dose: 2.0 mg/kg/injection, schedule: Q01DX005 (ip), vehicle: saline)?
The T/C was 204 % of control.

What about the T/C (dose: 2.0 mg/kg/injection, schedule: Q01DX009 (ip), vehicle: saline) of the same compound?
The T/C was 202 % of control and 109 % of control.

What about the T/C (dose: 2.0 mg/kg/injection, schedule: Q01DX009 (oral), vehicle: saline) of the same compound?
The T/C was 114 % of control.

And the T/C (dose: 2.0 mg/kg/injection, schedule: Q01DX009 (sc), vehicle: saline)?
Its T/C is 166 % of control.

And the T/C (dose: 2.0 mg/kg/injection, schedule: Q03HX008 (ip), vehicle: saline)?
Its T/C is 173 % of control.

And the T/C (dose: 2.0 mg/kg/injection, schedule: Q03HX016 (ip), vehicle: saline)?
The T/C was 313 % of control.

What about the T/C (dose: 2.0 mg/kg/injection, schedule: Q03HX024 (ip), vehicle: saline) of the same compound?
Its T/C is 89 % of control.

What about the T/C (dose: 4.0 mg/kg/injection, schedule: Q01DX001 (ip), vehicle: saline) of the same compound?
The T/C was 158 % of control.

What about the T/C (dose: 4.0 mg/kg/injection, schedule: Q01DX001 (sc), vehicle: saline) of the same compound?
The T/C was 123 % of control.

What about the T/C (dose: 4.0 mg/kg/injection, schedule: Q01DX005 (ip), vehicle: saline) of the same compound?
The T/C was 87 % of control.

What about the T/C (dose: 4.0 mg/kg/injection, schedule: Q01DX009 (ip), vehicle: saline) of the same compound?
Its T/C is 210 % of control and 112 % of control.

What about the T/C (dose: 4.0 mg/kg/injection, schedule: Q01DX009 (sc), vehicle: saline) of the same compound?
The T/C was 102 % of control.

What about the T/C (dose: 4.0 mg/kg/injection, schedule: Q04DX003 (ip), vehicle: saline) of the same compound?
The T/C was 209 % of control.

And the T/C (dose: 4.0 mg/kg/injection, schedule: Q08DX002 (ip), vehicle: saline)?
The T/C was 164 % of control.

And the T/C (dose: 8.0 mg/kg/injection, schedule: Q01DX001 (ip), vehicle: saline)?
Its T/C is 239 % of control.

And the T/C (dose: 8.0 mg/kg/injection, schedule: Q01DX001 (oral), vehicle: saline)?
The T/C was 122 % of control.

And the T/C (dose: 8.0 mg/kg/injection, schedule: Q01DX009 (oral), vehicle: saline)?
The T/C was 102 % of control.

And the T/C (dose: 8.0 mg/kg/injection, schedule: Q04DX003 (ip), vehicle: saline)?
The T/C was 169 % of control and 251 % of control.

And the T/C (dose: 8.0 mg/kg/injection, schedule: Q08DX002 (ip), vehicle: saline)?
The T/C was 346 % of control.

What about the T/C (dose: 16.0 mg/kg/injection, schedule: Q01DX001 (ip), vehicle: saline) of the same compound?
The T/C was 254 % of control.

What about the T/C (dose: 16.0 mg/kg/injection, schedule: Q01DX001 (sc), vehicle: saline) of the same compound?
Its T/C is 153 % of control.

And the T/C (dose: 32.0 mg/kg/injection, schedule: Q01DX001 (ip), vehicle: saline)?
The T/C was 87 % of control.

What about the T/C (dose: 32.0 mg/kg/injection, schedule: Q01DX001 (sc), vehicle: saline) of the same compound?
Its T/C is 156 % of control.

What about the T/C (dose: 32.0 mg/kg/injection, schedule: Q04DX003 (ip), vehicle: saline) of the same compound?
The T/C was 454 % of control.

And the T/C (dose: 32.0 mg/kg/injection, schedule: Q08DX002 (ip), vehicle: saline)?
The T/C was 114 % of control.

For CC12CCC(OC3CCCCO3)CC1=CCC1C2CCC2(C)C1CCC21CCNP(=O)(N(CCCl)CCCl)O1 (configuration not stated), which T/C (dose: 12.5 mg/kg/injection, schedule: Q01DX005 (ip), vehicle: other) is on record?
Its T/C is 100 % of control.

What about the T/C (dose: 25.0 mg/kg/injection, schedule: Q01DX005 (ip), vehicle: other) of the same compound?
Its T/C is 91 % of control.

And the T/C (dose: 50.0 mg/kg/injection, schedule: Q01DX005 (ip), vehicle: other)?
Its T/C is 95 % of control.

What about the T/C (dose: 100.0 mg/kg/injection, schedule: Q01DX005 (ip), vehicle: other) of the same compound?
The T/C was 95 % of control.

And the T/C (dose: 125.0 mg/kg/injection, schedule: Q01DX001 (ip), vehicle: Klucel (hydroxypropylcellulose) (HPC))?
The T/C was 95 % of control.

And the T/C (dose: 250.0 mg/kg/injection, schedule: Q01DX001 (ip), vehicle: Klucel (hydroxypropylcellulose) (HPC))?
Its T/C is 96 % of control.

And the T/C (dose: 500.0 mg/kg/injection, schedule: Q01DX001 (ip), vehicle: Klucel (hydroxypropylcellulose) (HPC))?
The T/C was 101 % of control.

And the T/C (dose: 1000.0 mg/kg/injection, schedule: Q01DX001 (ip), vehicle: Klucel (hydroxypropylcellulose) (HPC))?
Its T/C is 98 % of control.

Cc1ccc(S(=O)[O-])cc1.[C-]#[O+].[C-]#[O+].[Fe+6].[c-]1[c-][c-][cH-][c-]1 was tested. Which T/C (dose: 50.0 mg/kg/injection, schedule: Q04DX002 (ip), vehicle: saline with Tween-80) did it give?
Its T/C is 97 % of control.

And the T/C [1]?
The T/C was 108 % of control.

With CC(C)C(=O)Nc1cccc(OC(=O)NC(C)(C)C)c1 as the compound, how does the T/C (dose: 25.0 mg/kg/injection, schedule: Q01DX001 (ip), vehicle: saline with Tween-80) read?
The T/C was 100 % of control.

What about the T/C (dose: 50.0 mg/kg/injection, schedule: Q01DX001 (ip), vehicle: saline with Tween-80) of the same compound?
Its T/C is 91 % of control.

What about the T/C (dose: 100.0 mg/kg/injection, schedule: Q01DX001 (ip), vehicle: saline with Tween-80) of the same compound?
The T/C was 94 % of control.

What does the source list for CCc1ccc(N=Nc2ccc(N(C)C)cc2)cc1CC?
T/C (dose: 75.0 mg/kg/injection, schedule: Q04DX002 (ip), vehicle: saline with Tween-80): 92 % of control; T/C (dose: 150.0 mg/kg/injection, schedule: Q04DX002 (ip), vehicle: saline with Tween-80): 92 % of control; T/C (dose: 300.0 mg/kg/injection, schedule: Q04DX002 (ip), vehicle: saline with Tween-80): 88 % of control

How did the T/C (dose: 12.5 mg/kg/injection, schedule: Q01DX005 (ip), vehicle: distilled water + Tween-80) turn out when OCC1OC(n2cnc3c(Nc4ccccc4)ncnc32)C(O)C1O (configuration not stated) was run?
The T/C was 102 % of control.

What about the T/C (dose: 25.0 mg/kg/injection, schedule: Q01DX005 (ip), vehicle: distilled water + Tween-80) of the same compound?
Its T/C is 100 % of control.

And the T/C (dose: 50.0 mg/kg/injection, schedule: Q01DX005 (ip), vehicle: distilled water + Tween-80)?
Its T/C is 100 % of control.

And the T/C (dose: 100.0 mg/kg/injection, schedule: Q01DX005 (ip), vehicle: distilled water + Tween-80)?
The T/C was 94 % of control.

What about the T/C (dose: 200.0 mg/kg/injection, schedule: Q01DX005 (ip), vehicle: distilled water + Tween-80) of the same compound?
Its T/C is 98 % of control.

Which results are given for Nc1ccc(C(=O)O)cc1S(=O)(=O)O?
T/C (dose: 25.0 mg/kg/injection, schedule: Q01DX001 (ip), vehicle: Klucel (hydroxypropylcellulose) (HPC)): 96 % of control; T/C (dose: 50.0 mg/kg/injection, schedule: Q01DX001 (ip), vehicle: Klucel (hydroxypropylcellulose) (HPC)): 100 % of control; T/C (dose: 100.0 mg/kg/injection, schedule: Q01DX001 (ip), vehicle: Klucel (hydroxypropylcellulose) (HPC)): 107 % of control

CCCC(=O)NC1=C(Cl)C(=O)c2ccccc2C1=O was tested. Which T/C (dose: 5.0 mg/kg/injection, schedule: Q01DX001 (ip), vehicle: saline) did it give?
The T/C was 88 % of control.

And the T/C (dose: 10.0 mg/kg/injection, schedule: Q01DX001 (ip), vehicle: saline)?
Its T/C is 103 % of control.

And the T/C (dose: 20.0 mg/kg/injection, schedule: Q01DX001 (ip), vehicle: saline)?
The T/C was 95 % of control.

Cc1ccccc1NC(=O)Oc1ccc(Cl)cc1C was tested. Which T/C (dose: 100.0 mg/kg/injection, schedule: Q04DX002 (ip), vehicle: saline with Tween-80) did it give?
Its T/C is 101 % of control.

And the T/C [1]?
Its T/C is 93 % of control.

What about the T/C (dose: 400.0 mg/kg/injection, schedule: Q04DX002 (ip), vehicle: saline with Tween-80) of the same compound?
The T/C was 97 % of control.

For COC(=O)c1cc(NC(C)=O)ccc1S(=O)(=O)c1ccc(NC(C)=O)cc1C(=O)OC, which T/C (dose: 100.0 mg/kg/injection, schedule: Q04DX003 (ip), vehicle: saline with Tween-80) is on record?
Its T/C is 101 % of control.

What about the T/C (dose: 200.0 mg/kg/injection, schedule: Q04DX003 (ip), vehicle: saline with Tween-80) of the same compound?
The T/C was 101 % of control.

And the T/C (dose: 400.0 mg/kg/injection, schedule: Q04DX003 (ip), vehicle: saline with Tween-80)?
The T/C was 97 % of control.

What does the source list for Cc1cc(=O)[nH]c2[nH]c(=O)ccc12?
T/C (dose: 100.0 mg/kg/injection, schedule: Q01DX001 (ip), vehicle: saline): 100 % of control; T/C (dose: 200.0 mg/kg/injection, schedule: Q01DX001 (ip), vehicle: saline): 96 % of control; T/C (dose: 400.0 mg/kg/injection, schedule: Q01DX001 (ip), vehicle: saline): 96 % of control

What does the source list for CCCCN=C=C(c1ccccc1)c1ccccc1?
T/C (dose: 25.0 mg/kg/injection, schedule: Q04DX002 (ip), vehicle: other): 97 % of control; T/C (dose: 50.0 mg/kg/injection, schedule: Q04DX002 (ip), vehicle: other): 86 % of control; T/C (dose: 100.0 mg/kg/injection, schedule: Q04DX002 (ip), vehicle: other): 89 % of control
